Consider 31 compounds from patent US10227350B2 (Gilead Sciences, Inc., priority 2016, dated 2019).

SMILES strings stand for the structures.

PI3Kβ, sequence (P42338 whole entry, the tested form may be a part): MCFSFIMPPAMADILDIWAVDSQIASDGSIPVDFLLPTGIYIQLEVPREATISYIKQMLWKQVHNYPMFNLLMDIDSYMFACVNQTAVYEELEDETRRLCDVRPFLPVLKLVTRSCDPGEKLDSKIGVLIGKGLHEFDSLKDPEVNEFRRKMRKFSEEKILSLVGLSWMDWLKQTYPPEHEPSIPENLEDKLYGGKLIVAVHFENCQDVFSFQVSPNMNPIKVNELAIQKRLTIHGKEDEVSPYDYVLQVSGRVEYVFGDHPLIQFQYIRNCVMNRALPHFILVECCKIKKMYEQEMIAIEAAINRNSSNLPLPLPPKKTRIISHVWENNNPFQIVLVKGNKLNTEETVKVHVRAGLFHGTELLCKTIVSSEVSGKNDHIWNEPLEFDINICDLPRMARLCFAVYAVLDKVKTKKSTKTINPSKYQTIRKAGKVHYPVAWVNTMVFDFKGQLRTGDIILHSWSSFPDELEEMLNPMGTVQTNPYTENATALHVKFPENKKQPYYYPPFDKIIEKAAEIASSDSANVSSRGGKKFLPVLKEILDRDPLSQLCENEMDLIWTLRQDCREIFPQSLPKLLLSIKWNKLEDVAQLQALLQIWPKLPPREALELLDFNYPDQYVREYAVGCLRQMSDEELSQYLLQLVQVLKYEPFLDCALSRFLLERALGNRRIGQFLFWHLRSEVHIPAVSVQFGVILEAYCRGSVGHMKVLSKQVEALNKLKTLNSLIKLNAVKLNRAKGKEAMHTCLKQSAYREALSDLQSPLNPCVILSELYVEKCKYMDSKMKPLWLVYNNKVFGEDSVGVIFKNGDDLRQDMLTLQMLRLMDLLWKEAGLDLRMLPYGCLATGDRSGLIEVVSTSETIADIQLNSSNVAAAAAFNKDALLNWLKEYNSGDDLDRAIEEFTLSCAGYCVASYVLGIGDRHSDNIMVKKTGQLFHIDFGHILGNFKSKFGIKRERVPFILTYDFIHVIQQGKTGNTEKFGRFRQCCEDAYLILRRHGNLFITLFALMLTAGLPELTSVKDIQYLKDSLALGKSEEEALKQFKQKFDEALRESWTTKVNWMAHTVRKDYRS
PI3Kβ, sequence (P27986 whole entry partner, the tested form may be a part): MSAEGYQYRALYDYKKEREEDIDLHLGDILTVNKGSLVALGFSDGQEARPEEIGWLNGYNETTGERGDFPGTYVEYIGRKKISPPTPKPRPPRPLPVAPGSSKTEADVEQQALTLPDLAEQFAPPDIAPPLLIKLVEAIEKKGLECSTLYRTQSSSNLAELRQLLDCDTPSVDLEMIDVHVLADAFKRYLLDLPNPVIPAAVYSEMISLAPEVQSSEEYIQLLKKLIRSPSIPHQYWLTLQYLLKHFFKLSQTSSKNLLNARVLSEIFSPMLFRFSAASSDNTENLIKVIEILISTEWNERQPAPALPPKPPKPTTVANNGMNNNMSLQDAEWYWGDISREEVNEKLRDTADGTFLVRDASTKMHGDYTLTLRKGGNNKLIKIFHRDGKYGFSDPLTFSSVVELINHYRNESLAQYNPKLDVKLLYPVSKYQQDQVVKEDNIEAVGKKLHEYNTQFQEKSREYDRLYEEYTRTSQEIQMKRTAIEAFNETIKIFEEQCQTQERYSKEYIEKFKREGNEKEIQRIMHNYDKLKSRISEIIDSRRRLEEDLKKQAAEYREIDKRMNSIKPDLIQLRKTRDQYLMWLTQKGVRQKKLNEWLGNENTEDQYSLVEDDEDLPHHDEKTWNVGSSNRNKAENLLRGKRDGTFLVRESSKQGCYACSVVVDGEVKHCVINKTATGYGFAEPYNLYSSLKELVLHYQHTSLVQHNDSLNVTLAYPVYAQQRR

The test has as its target PI3Kβ (Homo sapiens (Human), UniProt P42338). Briefly: TR-FRET enzymatic activity assay, PI3Kβ. The test is classed as biochemical. The note with it: 2× Km ATP, 2 μM PIP2, 30 minutes at 25° C., read-out: IC50-PIP-Beta. An outline of the steps:
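Purified recombinant heterodimeric PI3Kβ; PIP3 formation read by TR-FRET as competition with fluorescent tracer for GRP-1 PH domain binding. Compounds incubated 30 min at 25 °C.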
One may read the IC50 as the concentration at which inhibition is half-maximal. `Cc1nc2c(C(N)=O)cc(-c3ccncc3)cc2n1-c1ccnc2cccc(F)c12` [Example 8, 1-(5-fluoroquinolin-4-yl)-2-methyl-6-pyridin-4-ylbenzimidazole-4-carboxamide]: the IC50 was 82 nM. To `CCc1nc2c(-c3nnc[nH]3)cc(-c3ccnc(N)c3F)cc2n1-c1ccnc2c(F)ccc(F)c12` (single isomer, unassigned) [Example 110, 4-[3-(5,8-difluoroquinolin-4-yl)-2-ethyl-7-(4H-1,2,4-triazol-3-yl)benzimidazol-5-yl]-3-fluoropyridin-2-amine] belongs 2 nM. As to `Cc1nc2c(-c3nnc[nH]3)cc(-c3ccnc(N)c3)cc2n1-c1ccnc2c(Cl)ccc(F)c12` [Example 51, 4-[3-(8-chloro-5-fluoroquinolin-4-yl)-2-methyl-7-(4H-1,2,4-triazol-3-yl)benzimidazol-5-yl]pyridin-2-amine], the IC50 came out at 3 nM. With `CC(C)c1nc2c(-c3nnc[nH]3)cc(-c3ccnc(N)c3)cc2n1-c1ccnc2c(Cl)ccc(F)c12` [Example 67, 4-[3-(8-chloro-5-fluoroquinolin-4-yl)-2-propan-2-yl-7-(4H-1,2,4-triazol-3-yl)benzimidazol-5-yl]pyridin-2-amine], the concentration for half-maximal inhibition (IC50) was determined as 8 nM. In the case of `Nc1cc(-c2cc(-c3nnc[nH]3)c3nc(CC4CC4)n(-c4ccnc5c(Cl)cccc45)c3c2)ccn1` [Example 73, 4-[3-(8-chloroquinolin-4-yl)-2-(cyclopropylmethyl)-7-(4H-1,2,4-triazol-3-yl)benzimidazol-5-yl]pyridin-2-amine], the IC50 was 8 nM. As for `Cc1nnc(-c2cc(-c3ccnc(N)c3)cc3c2nc(C)n3-c2ccnc3c(Cl)cccc23)[nH]1` [Example 49, 4-[3-(8-chloroquinolin-4-yl)-2-methyl-7-(5-methyl-4H-1,2,4-triazol-3-yl)benzimidazol-5-yl]pyridin-2-amine], the concentration for half-maximal inhibition (IC50) was 170 nM. In the case of `Cc1nc2c(C(N)=O)cc(-c3ccncc3)cc2n1-c1ccnc2c(F)ccc(F)c12` [Example 6, 1-(5,8-difluoroquinolin-4-yl)-2-methyl-6-pyridin-4-ylbenzimidazole-4-carboxamide], the IC50 turned out to be 36 nM. In the case of `Cc1nc2c(-c3nnc[nH]3)cc(-c3ccnc(N)c3)cc2n1-c1ccnc2cccc(F)c12` [Example 55, 4-[3-(5-fluoroquinolin-4-yl)-2-methyl-7-(4H-1,2,4-triazol-3-yl)benzimidazol-5-yl]pyridin-2-amine], the IC50 was determined as 19 nM.

Take `Cc1nc2c(-c3nnc[nH]3)cc(-c3ccnc(Cl)c3)cc2n1-c1ccnc2c(F)ccc(F)c12` [Example 158, 4-(6-(2-chloropyridin-4-yl)-2-methyl-4-(4H-1,2,4-triazol-3-yl)-1H-benzo[d]imidazol-1-yl)-5,8-difluoroquinoline]: the 50% inhibitory concentration (IC50) came to 7 nM.

Regarding `Cc1nc2c(C(N)=O)cc(-c3ccnc(N)c3)cc2n1-c1ccnc2c(Cl)cccc12` [Example 23, 6-(2-aminopyridin-4-yl)-1-(8-chloroquinolin-4-yl)-2-methyl-1H-benzo[d]imidazole-4-carboxamide], the IC50 is 96 nM. With `Fc1nccc(-c2cc(-c3nnc[nH]3)c3ncn(-c4ccnc5c(F)ccc(F)c45)c3c2)c1F` [Example 47, 4-[6-(2,3-difluoropyridin-4-yl)-4-(4H-1,2,4-triazol-3-yl)benzimidazol-1-yl]-5,8-difluoroquinoline], the IC50 is 46 nM. Turning to `Cc1nc2c(-c3nnc[nH]3)cc(-c3ccnc(N)c3F)cc2n1-c1ccnc2cccc(F)c12` [Example 93, 3-fluoro-4-[3-(5-fluoroquinolin-4-yl)-2-methyl-7-(4H-1,2,4-triazol-3-yl)benzimidazol-5-yl]pyridin-2-amine], the IC50 amounted to 5 nM.

As for `Cc1nc2c(C(N)=O)cc(-c3ccncc3)cc2n1-c1ccnc2c(Cl)ccc(F)c12` [Example 11, 1-(8-chloro-5-fluoroquinolin-4-yl)-2-methyl-6-pyridin-4-ylbenzimidazole-4-carboxamide], the IC50 was determined as 3 nM. With `COc1nccc(-c2cc(-c3nnc[nH]3)c3nc(C)n(-c4ccnc5c(F)ccc(F)c45)c3c2)n1` [Example 154, 5,8-difluoro-4-(6-(2-methoxypyrimidin-4-yl)-2-methyl-4-(4H-1,2,4-triazol-3-yl)-1H-benzo[d]imidazol-1-yl)quinoline], the IC50 came to 9 nM. On to `Cc1nc2c(C(N)=O)cc(-c3ccncc3)cc2n1-c1ccnc2c(Cl)cccc12` [Example 13, 1-(8-chloroquinolin-4-yl)-2-methyl-6-pyridin-4-ylbenzimidazole-4-carboxamide], for which the IC50 was found to be 15 nM. For the compound `N#Cc1cc(-c2cc(-c3nnc[nH]3)c3ncn(-c4cc(-c5cn[nH]c5)nc5ccccc45)c3c2)ccn1` [Example 166, 4-(1-(2-(1H-pyrazol-4-yl)quinolin-4-yl)-4-(4H-1,2,4-triazol-3-yl)-1H-benzo[d]imidazol-6-yl)picolinonitrile], the 50% inhibitory concentration (IC50) amounted to 70 nM. Regarding `Cc1nc2c(-c3nnc[nH]3)cc(-c3ccnc(N)c3)cc2n1-c1ccnc2c(F)ccc(F)c12` (single isomer, unassigned) [Example 104, 4-(1-(5,8-difluoroquinolin-4-yl)-2-methyl-4-(4H-1,2,4-triazol-3-yl)-1H-benzo[d]imidazol-6-yl)pyridin-2-amine], the IC50 is 9 nM. As for `Cc1nc2c(-c3nnc[nH]3)cc(-c3ccncc3F)cc2n1-c1ccnc2c(Cl)cccc12` (single isomer, unassigned) [Example 137, 8-chloro-4-(6-(3-fluoropyridin-4-yl)-2-methyl-4-(4H-1,2,4-triazol-3-yl)-1H-benzo[d]imidazol-1-yl)quinoline], the IC50 stood at 10 nM. For `Cc1nc2c(-c3nnc[nH]3)cc(-c3ccnc(C#N)c3)cc2n1-c1ccnc2c(Cl)cccc12` [Example 149, 4-(1-(8-chloroquinolin-4-yl)-2-methyl-4-(4H-1,2,4-triazol-3-yl)-1H-benzo[d]imidazol-6-yl)picolinonitrile], the IC50 was determined as 4 nM. To `Cc1nnc(-c2cc(-c3ccnc(N)c3)cc3c2nc(C(C)C)n3-c2ccnc3c(Cl)ccc(F)c23)[nH]1` [Example 66, 4-[3-(8-chloro-5-fluoroquinolin-4-yl)-7-(5-methyl-4H-1,2,4-triazol-3-yl)-2-propan-2-ylbenzimidazol-5-yl]pyridin-2-amine] belongs 140 nM; to `Cc1nc2c(-c3nnc[nH]3)cc(-c3ccnc(C#N)c3)cc2n1-c1ccnc2cccc(F)c12` (single isomer, unassigned) [Example 132, 4-(1-(5-fluoroquinolin-4-yl)-2-methyl-4-(4H-1,2,4-triazol-3-yl)-1H-benzo[d]imidazol-6-yl)picolinonitrile], 54 nM; to `Cc1nc2c(-c3nnc[nH]3)cc(-c3ccnc(N)c3F)cc2n1-c1c(Cl)cnc2c(F)cccc12` (single isomer, unassigned) [Example 107, 4-[3-(3-chloro-8-fluoroquinolin-4-yl)-2-methyl-7-(4H-1,2,4-triazol-3-yl)benzimidazol-5-yl]-3-fluoropyridin-2-amine], 29 nM.

With `Fc1nccc(-c2cc(-c3nnc[nH]3)c3ncn(-c4cc(N5CCNCC5)nc5ccccc45)c3c2)c1F` [Example 164, 4-(6-(2,3-difluoropyridin-4-yl)-4-(4H-1,2,4-triazol-3-yl)-1H-benzo[d]imidazol-1-yl)-2-(piperazin-1-yl)quinoline], the IC50 amounted to 10 nM.

As to `Cc1nc2c(-c3nnc[nH]3)cc(-c3ccnc(C#N)c3)cc2n1-c1ccnc2c(F)ccc(F)c12` (single isomer, unassigned) [Example 114, 4-[3-(5,8-difluoroquinolin-4-yl)-2-methyl-7-(4H-1,2,4-triazol-3-yl)benzimidazol-5-yl]pyridine-2-carbonitrile], the IC50 worked out at 560 nM. Next, `CNc1nccc(-c2cc(-c3nnc[nH]3)c3nc(C)n(-c4ccnc5c(F)ccc(F)c45)c3c2)c1F` [Example 77, 4-[3-(5,8-difluoroquinolin-4-yl)-2-methyl-7-(4H-1,2,4-triazol-3-yl)benzimidazol-5-yl]-3-fluoro-N-methylpyridin-2-amine]: 1400 nM. For the compound `Cc1nc2c(-c3nnc[nH]3)cc(-c3ccnc(C#N)c3)cc2n1-c1ccnc2c(Cl)ccc(F)c12` (single isomer, unassigned) [Example 135, 4-(1-(8-chloro-5-fluoroquinolin-4-yl)-2-methyl-4-(4H-1,2,4-triazol-3-yl)-1H-benzo[d]imidazol-6-yl)picolinonitrile], the IC50 turned out to be 4 nM. In the case of `Cc1nc2c(-c3nnc[nH]3)cc(-c3ccnc(N)c3F)cc2n1-c1c(Cl)cnc2c(F)cccc12` (single isomer, unassigned) [Example 108, 4-[3-(3-chloro-8-fluoroquinolin-4-yl)-2-methyl-7-(4H-1,2,4-triazol-3-yl)benzimidazol-5-yl]-3-fluoropyridin-2-amine], the IC50 is 810 nM. As to `Cc1cc(-n2c(C)nc3c(C(N)=O)cc(-c4ccncc4)cc32)c2cccc(Cl)c2n1` [Example 7, 1-(8-chloro-2-methylquinolin-4-yl)-2-methyl-6-pyridin-4-ylbenzimidazole-4-carboxamide], the half-maximal inhibitory concentration (IC50) was 16 nM. `CCCc1nc2c(-c3nnc[nH]3)cc(-c3ccnc(N)c3F)cc2n1-c1ccnc2c(F)cccc12` [Example 87, 3-fluoro-4-[3-(8-fluoroquinolin-4-yl)-2-propyl-7-(4H-1,2,4-triazol-3-yl)benzimidazol-5-yl]pyridin-2-amine]: the IC50 was 12 nM. `Cc1nnc(-c2cc(-c3ccncc3)cc3c2nc(C)n3-c2ccnc3c(Cl)cccc23)[nH]1` [Example 35, 8-chloro-4-[2-methyl-4-(5-methyl-4H-1,2,4-triazol-3-yl)-6-pyridin-4-ylbenzimidazol-1-yl]quinoline]: the half-inhibitory concentration (IC50) was 22 nM. With `Cc1nc2c(-c3nnc[nH]3)cc(-c3ccnc(N)c3)cc2n1-c1ccnc2cc(F)ccc12` [Example 53, 4-[3-(7-fluoroquinolin-4-yl)-2-methyl-7-(4H-1,2,4-triazol-3-yl)benzimidazol-5-yl]pyridin-2-amine], the IC50 worked out at 180 nM.
